We go through two compounds from patent publication US20230181472A1, “PROCESS OF MAKING IVABRADINE HYDROCHLORIDE DRUG PRODUCT” (Amgen Inc., priority 2018, published 2023).

The data set can be described thus: FT-Raman peak width (FWHM) at 705 cm^−1 as a measure of amorphous ivabradine hydrochloride. Conditions: peak heights normalized at 705 cm^−1, broader peak = more amorphous content. The data set is classed as physicochemical. The text has this: During characterization of the ivabradine hydrochloride chrystalline forms, Fourier Transform Raman Spectroscopy was used to evaluate different peak shapes. A Thermo Scientific Nicolet NXR FT-Raman equipped with liquid nitrogen cooled germanium (Ge) detector (Thermo Scientific) was used for FT-Raman signal collection. Peak broadening was most defined at a Raman shift of 705 cm^−1. The peak heights were normalized at 705 cm^−1 and the width of the peak was characterized as full width at half maximum (FWHM). Table 3 highlights the FWHM of pure tetrahydrate and amorphous drug substance with an approximate doubling of peak width for purely amorphous ivabradine hydrochloride. […] Modifying the process conditions as described herein produced FWHM values of 10.3 and 9.6 cm^−1 for the 5 mg and 7.5 mg drug products respectively showing the significant reduction in the amount of amorphous ivabradine hydrochloride present in the drug product.

Where a name gives a salt, the structure may show the parent alone.

On to `COc1cc2c(cc1OC)CC(=O)N(CCCN(C)C[C@H]1Cc3cc(OC)c(OC)cc31)CC2` [Ivabradine hydrochloride tetrahydrate (pure)], for which the “FWHM (cm^−1) of 705 cm^−1 peak” value was 8.4 cm⁻¹.
As to `COc1cc2c(cc1OC)CC(=O)N(CCCN(C)C[C@H]1Cc3cc(OC)c(OC)cc31)CC2` [Ivabradine hydrochloride amorphous (pure)], the “FWHM (cm^−1) of 705 cm^−1 peak” value was determined as 16.3 cm⁻¹.
